Tests used:
[1] = species: Homo sapiens; assay: Selectivity ratio of IC50 for human N-terminal His-tagged JAK2 catalytic domain (828 to 1132 residues) to IC50 for human N-terminal His-tagged JAK1 catalytic domain (837 to 1142 residues)
[2] = molecular target: Tyrosine-protein kinase JAK2 (Homo sapiens, UniProt O60674); assay: Inhibition of human N-terminal His-tagged JAK2 catalytic domain (828 to 1132 residues) expressed in baculovirus infected insect cells assessed as decrease in phosphorylation of biotinylated peptide substrate after 1 hr in presence of 1 mM ATP by HTRF method
[3] = molecular target: Tyrosine-protein kinase JAK1 (Homo sapiens, UniProt P23458); assay: Inhibition of human N-terminal His-tagged JAK1 catalytic domain (837 to 1142 residues) expressed in baculovirus infected insect cells assessed as decrease in phosphorylation of biotinylated peptide substrate after 1 hr in presence of 1 mM ATP by HTRF method
Chain of Tyrosine-protein kinase JAK1 (P23458 whole entry, the tested form may be a part): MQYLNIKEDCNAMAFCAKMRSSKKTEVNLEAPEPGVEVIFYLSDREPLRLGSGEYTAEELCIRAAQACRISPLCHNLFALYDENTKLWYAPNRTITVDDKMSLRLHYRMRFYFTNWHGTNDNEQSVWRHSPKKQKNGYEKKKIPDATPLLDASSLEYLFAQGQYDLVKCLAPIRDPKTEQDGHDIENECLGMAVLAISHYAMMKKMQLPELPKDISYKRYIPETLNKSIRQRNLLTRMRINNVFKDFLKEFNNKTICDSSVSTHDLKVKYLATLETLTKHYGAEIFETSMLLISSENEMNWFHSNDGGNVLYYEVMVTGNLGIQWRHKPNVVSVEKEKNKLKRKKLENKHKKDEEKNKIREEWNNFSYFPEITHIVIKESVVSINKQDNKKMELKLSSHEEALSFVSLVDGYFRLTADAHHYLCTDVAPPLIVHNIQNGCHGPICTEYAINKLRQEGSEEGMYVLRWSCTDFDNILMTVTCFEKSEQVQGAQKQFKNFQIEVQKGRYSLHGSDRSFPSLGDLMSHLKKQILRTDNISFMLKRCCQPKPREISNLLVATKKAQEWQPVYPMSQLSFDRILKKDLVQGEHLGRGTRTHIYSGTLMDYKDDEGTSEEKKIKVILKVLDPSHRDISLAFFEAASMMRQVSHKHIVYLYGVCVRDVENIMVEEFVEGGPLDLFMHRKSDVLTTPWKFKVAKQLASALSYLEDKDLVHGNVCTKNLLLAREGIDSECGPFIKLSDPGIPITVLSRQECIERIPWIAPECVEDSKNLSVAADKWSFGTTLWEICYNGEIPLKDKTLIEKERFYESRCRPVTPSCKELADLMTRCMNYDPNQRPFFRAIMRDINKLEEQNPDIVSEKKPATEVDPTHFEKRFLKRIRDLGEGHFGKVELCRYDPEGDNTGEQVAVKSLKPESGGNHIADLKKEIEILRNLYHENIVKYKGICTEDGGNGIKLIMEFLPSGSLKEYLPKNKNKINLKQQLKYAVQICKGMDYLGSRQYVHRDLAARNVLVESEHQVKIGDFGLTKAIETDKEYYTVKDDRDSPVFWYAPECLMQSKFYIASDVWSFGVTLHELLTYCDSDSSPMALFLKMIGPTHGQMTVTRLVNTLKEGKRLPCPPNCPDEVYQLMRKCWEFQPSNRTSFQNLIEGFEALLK

Chain of Tyrosine-protein kinase JAK2 (O60674 whole entry, the tested form may be a part): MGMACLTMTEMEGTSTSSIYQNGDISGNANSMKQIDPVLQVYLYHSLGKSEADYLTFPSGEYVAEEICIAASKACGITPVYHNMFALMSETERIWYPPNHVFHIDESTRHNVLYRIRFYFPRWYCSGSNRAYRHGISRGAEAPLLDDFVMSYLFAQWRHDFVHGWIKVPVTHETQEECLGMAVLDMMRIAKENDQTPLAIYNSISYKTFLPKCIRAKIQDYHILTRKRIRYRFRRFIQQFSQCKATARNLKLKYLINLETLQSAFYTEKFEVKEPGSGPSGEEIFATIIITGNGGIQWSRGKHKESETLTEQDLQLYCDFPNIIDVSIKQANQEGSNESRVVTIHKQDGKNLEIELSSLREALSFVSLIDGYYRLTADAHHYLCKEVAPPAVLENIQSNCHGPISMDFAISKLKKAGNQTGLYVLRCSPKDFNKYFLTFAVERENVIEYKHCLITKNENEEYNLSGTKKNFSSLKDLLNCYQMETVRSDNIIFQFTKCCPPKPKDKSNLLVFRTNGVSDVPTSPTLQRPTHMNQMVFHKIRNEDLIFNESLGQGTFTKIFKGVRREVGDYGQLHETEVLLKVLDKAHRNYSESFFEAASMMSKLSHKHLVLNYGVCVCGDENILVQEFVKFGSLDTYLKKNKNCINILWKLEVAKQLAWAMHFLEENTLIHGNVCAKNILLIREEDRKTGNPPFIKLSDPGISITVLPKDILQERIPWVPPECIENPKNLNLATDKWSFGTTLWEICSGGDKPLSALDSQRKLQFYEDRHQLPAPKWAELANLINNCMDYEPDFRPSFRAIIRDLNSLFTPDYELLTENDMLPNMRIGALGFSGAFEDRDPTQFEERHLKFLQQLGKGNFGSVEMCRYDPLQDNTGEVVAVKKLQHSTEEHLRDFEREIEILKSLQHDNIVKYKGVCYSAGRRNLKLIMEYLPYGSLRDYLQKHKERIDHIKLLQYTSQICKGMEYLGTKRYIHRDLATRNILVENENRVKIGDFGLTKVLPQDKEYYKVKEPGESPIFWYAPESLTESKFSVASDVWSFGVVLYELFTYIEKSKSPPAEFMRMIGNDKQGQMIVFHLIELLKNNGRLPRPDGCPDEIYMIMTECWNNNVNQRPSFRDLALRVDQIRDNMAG

| Ratio IC50 [1] | IC50 [2] | IC50 [3] | Structure (SMILES) |
| --- | --- | --- | --- |
| 7.1 to 24.4 | – | – | N#CCC1(n2cc(-c3ncnc4[nH]ccc34)cn2)CN(C2CCN(C(=O)OCc3cc(F)cc(F)c3)CC2)C1 |
| 21.4 | > 100 nM | 5 to 20 nM | N#CCC1(n2cc(-c3ccnc4[nH]ccc34)cn2)CN(C2CCN(C(=O)c3ccnc(C(F)(F)F)c3F)CC2)C1 |
| 10.4 to 20.3 | – | – | N#CCC1(n2cc(-c3ncnc4[nH]ccc34)cn2)CN(C2CCN(C(=O)Nc3cnccc3C(F)(F)F)CC2)C1 |
| 59.2 | > 100 nM | ≤ 5 nM | CO[C@@H]1CN(C(=O)c2ccnc(C(F)(F)F)c2F)CC[C@@H]1N1CC(CC#N)(n2cc(-c3ncnc4[nH]ccc34)cn2)C1 (relative stereo) |

From ChEMBL document CHEMBL3879909, “Piperidin-4-yl azetidine derivatives as JAK1 inhibitors” (2014)
